# Results taken from patent US9593197B2, “Trigger-responsive chain-shattering polymers” (THE BOARD OF TRUSTEES OF THE UNIVERSITY OF ILLINOIS, priority 2012, dated 2017).
# Experiment: MTT cytotoxicity assay before and after UV treatment
# Conditions: human, HeLa cells
smiles,measurement,value
"CC[C@@]1(O)C(=O)OCc2c1cc1n(c2=O)Cc2cc3cc(O)ccc3nc2-1 [HCPT, 10-hydroxycamptothecin]",IC50,6.2 to 7.32 µM
